According to patent US20250114387A1, “PHARMACEUTICAL COMPOSITION COMPRISING ENAVOGLIFLOZIN FOR PREVENTING OR TREATING OBESITY IN CANINE ANIMALS” (DAEWOONG PHARMACEUTICAL CO., LTD., priority 2022, published 2025):

Tested on: obese dogs
Experiment: Clinical trial in obese dogs: urine test strips, urinary glucose excretion
Format: in vivo
Experimental: A total of 20 dogs were selected and divided into 4 groups with 5 dogs in each group: a normal obese control (OC); hereinafter, referred to as a control (OC)), an enavogliflozin 0.2-administered group, an enavogliflozin 0.5-administered group, and an enavogliflozin 1-administered group. The control was fed regular feed, and the enavogliflozin-administered groups were fed regular feed supplemented with enavogliflozin at doses of 0.2, 0.5, or 1 mg/kg, respectively. The feed was supplemented with enavogliflozin once a day for 8 weeks and given orally.
Serum insulin concentrations were measured 2, 4, 6, 8, and 10 weeks after the start of enavogliflozin administration using a Quantikine Canine Insulin ELISA kit (Catalog no. DINS00, R&D Systems, Minneapolis, MN, USA) according to the manufacturer's protocol. […]

[1] = 0.2 mg/kg once a day oral for 8 weeks, 10 weeks
[2] = 0.2 mg/kg once a day oral, 2 weeks
[3] = 0.2 mg/kg once a day oral, 4 weeks
[4] = 0.2 mg/kg once a day oral, 6 weeks
[5] = 0.2 mg/kg once a day oral, 8 weeks
[6] = 0.5 mg/kg once a day oral for 8 weeks, 10 weeks
[7] = 0.5 mg/kg once a day oral, 2 weeks
[8] = 0.5 mg/kg once a day oral, 4 weeks
[9] = 0.5 mg/kg once a day oral, 6 weeks
[10] = 0.5 mg/kg once a day oral, 8 weeks
[11] = 1 mg/kg once a day oral for 8 weeks, 10 weeks
[12] = 1 mg/kg once a day oral, 2 weeks
[13] = 1 mg/kg once a day oral, 4 weeks
[14] = 1 mg/kg once a day oral, 6 weeks
[15] = 1 mg/kg once a day oral, 8 weeks

With OC[C@H]1O[C@@H](c2cc(Cc3ccc(C4CC4)cc3)c(Cl)c3c2CCO3)[C@H](O)[C@@H](O)[C@@H]1O [Enavogliflozin, enavogliflozin] as the molecule, how does the “Urine test - Glucose detection: number of dogs with grade +++, 3” value (from here on “Urine test - Glucose detection: number … 3”) [1] read?
Its value is 2.

What about the “Urine test - Glucose detection: number of dogs with grade +++, 4” value (shortened to “Urine test - Glucose detection: number … 4”) [1] of the same molecule?
Its value is 1.

What about the “Urine test - Glucose detection: number of dogs with grade ++, 2” value (“Urine test - Glucose detection: number … 2” below) [1] of the same molecule?
The value was 1.

What about the “Urine test - Glucose detection: number of dogs with grade +, 1” value (“Urine test - Glucose detection: number … 1” below) [1] of the same molecule?
Its value is 1.

And the “Urine test - Glucose detection: number of dogs with grade −, 0” value (from here on “Urine test - Glucose detection: number … 0”) [1]?
Its value is 0.

What about the “Urine test - Glucose detection: number … 3” value [2] of the same molecule?
Its value is 1.

And the “Urine test - Glucose detection: number … 4” value [2]?
Its value is 1.

What about the “Urine test - Glucose detection: number … 2” value [2] of the same molecule?
The value was 0.

And the “Urine test - Glucose detection: number … 1” value [2]?
The value was 3.

And the “Urine test - Glucose detection: number … 0” value [2]?
Its value is 0.

And the “Urine test - Glucose detection: number … 3” value [3]?
The value was 1.

And the “Urine test - Glucose detection: number … 4” value [3]?
The value was 1.

What about the “Urine test - Glucose detection: number … 2” value [3] of the same molecule?
The value was 1.

And the “Urine test - Glucose detection: number … 1” value [3]?
Its value is 2.

What about the “Urine test - Glucose detection: number … 0” value [3] of the same molecule?
Its value is 0.

What about the “Urine test - Glucose detection: number … 3” value [4] of the same molecule?
The value was 1.

What about the “Urine test - Glucose detection: number … 4” value [4] of the same molecule?
Its value is 1.

And the “Urine test - Glucose detection: number … 2” value [4]?
The value was 0.

And the “Urine test - Glucose detection: number … 1” value [4]?
Its value is 3.

What about the “Urine test - Glucose detection: number … 0” value [4] of the same molecule?
Its value is 0.

And the “Urine test - Glucose detection: number … 3” value [5]?
Its value is 1.

And the “Urine test - Glucose detection: number … 4” value [5]?
Its value is 1.

And the “Urine test - Glucose detection: number … 2” value [5]?
The value was 2.

What about the “Urine test - Glucose detection: number … 1” value [5] of the same molecule?
The value was 1.

What about the “Urine test - Glucose detection: number … 0” value [5] of the same molecule?
The value was 0.

And the “Urine test - Glucose detection: number … 3” value [6]?
The value was 1.

What about the “Urine test - Glucose detection: number … 4” value [6] of the same molecule?
Its value is 1.

And the “Urine test - Glucose detection: number … 2” value [6]?
Its value is 1.

And the “Urine test - Glucose detection: number … 1” value [6]?
Its value is 1.

And the “Urine test - Glucose detection: number … 0” value [6]?
Its value is 1.

What about the “Urine test - Glucose detection: number … 3” value [7] of the same molecule?
Its value is 0.

What about the “Urine test - Glucose detection: number … 4” value [7] of the same molecule?
The value was 3.

And the “Urine test - Glucose detection: number … 2” value [7]?
Its value is 1.

What about the “Urine test - Glucose detection: number … 1” value [7] of the same molecule?
The value was 1.

What about the “Urine test - Glucose detection: number … 0” value [7] of the same molecule?
The value was 0.

And the “Urine test - Glucose detection: number … 3” value [8]?
The value was 0.

And the “Urine test - Glucose detection: number … 4” value [8]?
The value was 5.

And the “Urine test - Glucose detection: number … 2” value [8]?
Its value is 0.

And the “Urine test - Glucose detection: number … 1” value [8]?
The value was 0.

What about the “Urine test - Glucose detection: number … 0” value [8] of the same molecule?
Its value is 0.

What about the “Urine test - Glucose detection: number … 3” value [9] of the same molecule?
The value was 0.

What about the “Urine test - Glucose detection: number … 4” value [9] of the same molecule?
Its value is 5.

What about the “Urine test - Glucose detection: number … 2” value [9] of the same molecule?
The value was 0.

And the “Urine test - Glucose detection: number … 1” value [9]?
Its value is 0.

And the “Urine test - Glucose detection: number … 0” value [9]?
The value was 0.

What about the “Urine test - Glucose detection: number … 3” value [10] of the same molecule?
Its value is 0.

What about the “Urine test - Glucose detection: number … 4” value [10] of the same molecule?
The value was 4.

And the “Urine test - Glucose detection: number … 2” value [10]?
The value was 1.

What about the “Urine test - Glucose detection: number … 1” value [10] of the same molecule?
The value was 0.

And the “Urine test - Glucose detection: number … 0” value [10]?
The value was 0.

And the “Urine test - Glucose detection: number … 3” value [11]?
Its value is 1.

What about the “Urine test - Glucose detection: number … 4” value [11] of the same molecule?
The value was 1.

And the “Urine test - Glucose detection: number … 2” value [11]?
Its value is 0.

What about the “Urine test - Glucose detection: number … 1” value [11] of the same molecule?
Its value is 0.

What about the “Urine test - Glucose detection: number … 0” value [11] of the same molecule?
The value was 3.

And the “Urine test - Glucose detection: number … 3” value [12]?
The value was 2.

What about the “Urine test - Glucose detection: number … 4” value [12] of the same molecule?
Its value is 3.

What about the “Urine test - Glucose detection: number … 2” value [12] of the same molecule?
Its value is 0.

What about the “Urine test - Glucose detection: number … 1” value [12] of the same molecule?
Its value is 0.

And the “Urine test - Glucose detection: number … 0” value [12]?
Its value is 0.

And the “Urine test - Glucose detection: number … 3” value [13]?
The value was 0.

What about the “Urine test - Glucose detection: number … 4” value [13] of the same molecule?
The value was 5.

What about the “Urine test - Glucose detection: number … 2” value [13] of the same molecule?
Its value is 0.

And the “Urine test - Glucose detection: number … 1” value [13]?
Its value is 0.

And the “Urine test - Glucose detection: number … 0” value [13]?
The value was 0.

And the “Urine test - Glucose detection: number … 3” value [14]?
Its value is 0.

What about the “Urine test - Glucose detection: number … 4” value [14] of the same molecule?
The value was 5.

And the “Urine test - Glucose detection: number … 2” value [14]?
The value was 0.

What about the “Urine test - Glucose detection: number … 1” value [14] of the same molecule?
The value was 0.

And the “Urine test - Glucose detection: number … 0” value [14]?
The value was 0.

And the “Urine test - Glucose detection: number … 3” value [15]?
The value was 1.

And the “Urine test - Glucose detection: number … 4” value [15]?
Its value is 5.

What about the “Urine test - Glucose detection: number … 2” value [15] of the same molecule?
Its value is 0.

And the “Urine test - Glucose detection: number … 1” value [15]?
The value was 0.

And the “Urine test - Glucose detection: number … 0” value [15]?
The value was 0.

What about the “Urinary glucose (GLU) excretion” value (enavogliflozin-administered groups, particularly 0.2 mg/kg) of the same molecule?
Its value is “higher”.
